Where two headings read alike, the source gives them in different places.
Assays:
Experiment in all cases: biochemical
[1] = biological target: T1, panel of 374 wild-type kinases (Homo sapiens, UniProt Q9Y463); details: DYRK1B, read-out: % Enzyme Activity (relative to DMSO controls)
T1 construct: purchased Reaction Biology Corporation

[2] = biological target: T2, panel of 374 wild-type kinases (Homo sapiens, UniProt P24723); details: read-out: % Enzyme Activity (relative to DMSO controls), kinase PKCeta
T2 construct: purchased Reaction Biology Corporation

[3] = biological target: T3, panel of 374 wild-type kinases (Homo sapiens, UniProt Q9UKI8); details: read-out: % Enzyme Activity (relative to DMSO controls), kinase TLK1
T3 construct: purchased Reaction Biology Corporation
T3 sequence (Q9UKI8 1-766): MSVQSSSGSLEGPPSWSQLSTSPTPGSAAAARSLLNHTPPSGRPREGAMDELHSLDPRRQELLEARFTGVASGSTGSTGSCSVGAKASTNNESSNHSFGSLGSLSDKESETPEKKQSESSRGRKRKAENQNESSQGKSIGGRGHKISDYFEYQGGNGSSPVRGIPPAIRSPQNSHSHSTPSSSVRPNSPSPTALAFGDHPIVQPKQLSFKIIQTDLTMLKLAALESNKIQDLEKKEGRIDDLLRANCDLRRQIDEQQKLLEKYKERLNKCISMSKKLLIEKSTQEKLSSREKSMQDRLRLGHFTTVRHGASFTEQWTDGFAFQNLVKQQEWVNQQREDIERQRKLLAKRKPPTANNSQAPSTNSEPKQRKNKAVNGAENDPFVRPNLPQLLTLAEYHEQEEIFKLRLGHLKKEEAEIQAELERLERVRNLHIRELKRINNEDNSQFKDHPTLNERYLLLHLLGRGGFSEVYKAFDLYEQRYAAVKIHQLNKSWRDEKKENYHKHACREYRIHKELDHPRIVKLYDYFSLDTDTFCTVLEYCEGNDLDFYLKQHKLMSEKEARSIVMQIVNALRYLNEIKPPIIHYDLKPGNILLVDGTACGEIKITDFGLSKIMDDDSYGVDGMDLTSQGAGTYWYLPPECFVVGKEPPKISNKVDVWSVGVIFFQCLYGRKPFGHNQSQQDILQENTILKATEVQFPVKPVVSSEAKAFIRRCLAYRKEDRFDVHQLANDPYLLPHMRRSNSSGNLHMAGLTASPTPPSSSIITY

[4] = biological target: T4, panel of 374 wild-type kinases (Homo sapiens, UniProt P45983); details: JNK1, read-out: % Enzyme Activity (relative to DMSO controls)
T4 construct: purchased Reaction Biology Corporation

[5] = biological target: T5, panel of 374 wild-type kinases (Homo sapiens, UniProt P04626); details: read-out: % Enzyme Activity (relative to DMSO controls), ERBB2/HER2
T5 construct: purchased Reaction Biology Corporation

[6] = biological target: T6, panel of 374 wild-type kinases (Homo sapiens, UniProt P43250); details: read-out: % Enzyme Activity (relative to DMSO controls), GRK6
T6 construct: purchased Reaction Biology Corporation

[7] = biological target: T7, panel of 374 wild-type kinases (Homo sapiens, UniProt Q9UK32); details: read-out: % Enzyme Activity (relative to DMSO controls), kinase RSK4
T7 construct: purchased Reaction Biology Corporation

[8] = biological target: T8, panel of 374 wild-type kinases (Homo sapiens, UniProt Q00536); details: read-out: % Enzyme Activity (relative to DMSO controls), CDK16/cyclin Y (PCTAIRE)
T8 construct: purchased Reaction Biology Corporation

[9] = biological target: T9, panel of 374 wild-type kinases (Homo sapiens, UniProt Q8NG66); details: read-out: % Enzyme Activity (relative to DMSO controls), NEK11
T9 construct: purchased Reaction Biology Corporation
T9 sequence (Q8NG66 1-645): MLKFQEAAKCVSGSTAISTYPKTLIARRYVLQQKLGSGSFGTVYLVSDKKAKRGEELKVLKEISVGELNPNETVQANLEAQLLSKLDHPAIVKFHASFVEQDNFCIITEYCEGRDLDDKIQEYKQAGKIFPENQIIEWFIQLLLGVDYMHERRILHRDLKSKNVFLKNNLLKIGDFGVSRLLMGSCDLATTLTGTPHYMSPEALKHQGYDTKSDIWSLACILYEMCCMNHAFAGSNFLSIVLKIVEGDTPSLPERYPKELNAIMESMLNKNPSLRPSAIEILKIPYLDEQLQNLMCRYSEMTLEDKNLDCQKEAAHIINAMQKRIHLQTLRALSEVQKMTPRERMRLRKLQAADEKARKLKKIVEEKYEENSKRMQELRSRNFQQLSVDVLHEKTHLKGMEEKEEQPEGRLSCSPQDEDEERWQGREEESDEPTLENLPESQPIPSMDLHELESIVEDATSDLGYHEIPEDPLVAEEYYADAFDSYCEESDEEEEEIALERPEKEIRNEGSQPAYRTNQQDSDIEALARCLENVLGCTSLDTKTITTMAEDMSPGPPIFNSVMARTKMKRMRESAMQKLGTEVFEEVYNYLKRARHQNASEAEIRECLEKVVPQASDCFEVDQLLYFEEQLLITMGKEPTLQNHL

[10] = biological target: T10, panel of 374 wild-type kinases (Homo sapiens, UniProt O14965); details: read-out: % Enzyme Activity (relative to DMSO controls), Aurora A
T10 construct: purchased Reaction Biology Corporation
T10 sequence (O14965 1-403): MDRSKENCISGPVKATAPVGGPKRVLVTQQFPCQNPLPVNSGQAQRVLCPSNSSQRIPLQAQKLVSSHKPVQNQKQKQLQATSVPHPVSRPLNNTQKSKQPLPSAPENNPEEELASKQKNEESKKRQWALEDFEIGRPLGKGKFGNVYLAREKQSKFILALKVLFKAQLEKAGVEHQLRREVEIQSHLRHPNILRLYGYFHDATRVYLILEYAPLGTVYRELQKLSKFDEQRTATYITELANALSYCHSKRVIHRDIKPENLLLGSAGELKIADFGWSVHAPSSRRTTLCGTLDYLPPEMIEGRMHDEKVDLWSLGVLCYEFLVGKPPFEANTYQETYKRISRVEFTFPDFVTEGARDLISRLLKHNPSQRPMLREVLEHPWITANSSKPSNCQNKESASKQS

[11] = biological target: T11, panel of 374 wild-type kinases (Homo sapiens, UniProt P24941)
T11 construct: purchased Reaction Biology Corporation

[12] = read-out: % Enzyme Activity (relative to DMSO controls), CDK2/Cyclin A1
[13] = read-out: % Enzyme Activity (relative to DMSO controls), CDK2/cyclin A
[14] = read-out: % Enzyme Activity (relative to DMSO controls), CDK2/cyclin E2
[15] = read-out: % Enzyme Activity (relative to DMSO controls), CDK2/cyclin E
[16] = read-out: % Enzyme Activity (relative to DMSO controls), CDK2/cyclin O

T8 sequence (Q00536 whole entry): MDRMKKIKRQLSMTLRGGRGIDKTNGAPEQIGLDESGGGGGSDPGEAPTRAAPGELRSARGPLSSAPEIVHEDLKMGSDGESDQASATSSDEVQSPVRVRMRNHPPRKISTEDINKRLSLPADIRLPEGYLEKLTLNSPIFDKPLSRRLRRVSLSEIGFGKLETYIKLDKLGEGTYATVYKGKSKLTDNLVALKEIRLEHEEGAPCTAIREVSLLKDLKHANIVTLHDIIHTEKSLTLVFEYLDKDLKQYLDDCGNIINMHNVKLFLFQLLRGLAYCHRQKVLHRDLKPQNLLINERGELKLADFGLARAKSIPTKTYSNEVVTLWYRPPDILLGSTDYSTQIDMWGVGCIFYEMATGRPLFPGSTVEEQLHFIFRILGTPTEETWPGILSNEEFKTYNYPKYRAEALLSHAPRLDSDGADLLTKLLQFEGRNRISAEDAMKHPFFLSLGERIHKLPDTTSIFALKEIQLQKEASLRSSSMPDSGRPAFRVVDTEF
T7 sequence (Q9UK32 whole entry): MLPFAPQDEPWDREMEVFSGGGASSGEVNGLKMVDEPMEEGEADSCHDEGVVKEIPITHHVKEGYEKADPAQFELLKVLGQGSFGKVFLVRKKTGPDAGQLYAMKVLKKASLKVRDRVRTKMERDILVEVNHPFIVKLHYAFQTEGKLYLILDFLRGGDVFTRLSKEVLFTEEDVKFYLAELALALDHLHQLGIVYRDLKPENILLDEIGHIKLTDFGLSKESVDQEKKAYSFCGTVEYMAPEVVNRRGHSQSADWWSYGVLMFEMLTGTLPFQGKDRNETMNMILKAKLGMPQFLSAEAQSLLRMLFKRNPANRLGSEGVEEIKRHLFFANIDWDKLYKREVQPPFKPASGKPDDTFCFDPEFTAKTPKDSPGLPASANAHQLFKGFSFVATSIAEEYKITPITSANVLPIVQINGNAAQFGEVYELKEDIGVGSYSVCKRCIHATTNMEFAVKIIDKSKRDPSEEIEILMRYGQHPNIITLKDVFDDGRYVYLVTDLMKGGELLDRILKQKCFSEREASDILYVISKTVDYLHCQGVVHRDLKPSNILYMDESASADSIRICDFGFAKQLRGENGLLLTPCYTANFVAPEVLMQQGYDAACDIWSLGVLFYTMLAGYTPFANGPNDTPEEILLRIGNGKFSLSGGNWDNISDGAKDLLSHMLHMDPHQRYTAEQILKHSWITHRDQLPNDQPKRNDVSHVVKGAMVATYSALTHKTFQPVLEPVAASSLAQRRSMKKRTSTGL
T6 sequence (P43250 whole entry): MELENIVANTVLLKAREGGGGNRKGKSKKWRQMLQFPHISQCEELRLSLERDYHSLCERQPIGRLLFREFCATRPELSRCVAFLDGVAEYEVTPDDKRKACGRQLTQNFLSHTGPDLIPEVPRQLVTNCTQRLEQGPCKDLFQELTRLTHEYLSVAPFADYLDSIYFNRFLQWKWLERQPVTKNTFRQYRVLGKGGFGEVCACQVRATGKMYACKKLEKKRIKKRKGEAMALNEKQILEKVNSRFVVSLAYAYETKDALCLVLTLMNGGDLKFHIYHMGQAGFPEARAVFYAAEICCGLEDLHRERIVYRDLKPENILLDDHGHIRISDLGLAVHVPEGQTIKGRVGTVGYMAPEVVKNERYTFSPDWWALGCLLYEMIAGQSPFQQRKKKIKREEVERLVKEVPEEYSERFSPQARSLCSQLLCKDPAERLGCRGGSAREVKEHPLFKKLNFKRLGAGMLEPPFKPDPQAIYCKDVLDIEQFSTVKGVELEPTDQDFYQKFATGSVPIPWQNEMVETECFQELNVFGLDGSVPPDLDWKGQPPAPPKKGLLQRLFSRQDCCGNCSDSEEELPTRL
T1 sequence (Q9Y463 whole entry): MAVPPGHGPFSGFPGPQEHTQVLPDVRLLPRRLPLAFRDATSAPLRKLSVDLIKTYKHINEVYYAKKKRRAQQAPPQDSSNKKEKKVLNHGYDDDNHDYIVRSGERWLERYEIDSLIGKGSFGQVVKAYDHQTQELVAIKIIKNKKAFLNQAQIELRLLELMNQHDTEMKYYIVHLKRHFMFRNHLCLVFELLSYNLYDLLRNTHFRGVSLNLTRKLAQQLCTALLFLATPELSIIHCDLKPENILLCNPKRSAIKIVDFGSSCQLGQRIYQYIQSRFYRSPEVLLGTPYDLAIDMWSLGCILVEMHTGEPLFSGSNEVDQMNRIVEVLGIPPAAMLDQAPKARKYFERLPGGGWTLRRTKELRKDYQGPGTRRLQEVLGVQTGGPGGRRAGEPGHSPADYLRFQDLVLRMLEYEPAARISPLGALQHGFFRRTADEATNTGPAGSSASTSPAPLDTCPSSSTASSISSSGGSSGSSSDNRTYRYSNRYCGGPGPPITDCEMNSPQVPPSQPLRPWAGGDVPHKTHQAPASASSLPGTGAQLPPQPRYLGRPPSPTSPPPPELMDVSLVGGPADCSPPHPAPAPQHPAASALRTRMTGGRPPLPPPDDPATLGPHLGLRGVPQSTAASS
T2 sequence (P24723 whole entry): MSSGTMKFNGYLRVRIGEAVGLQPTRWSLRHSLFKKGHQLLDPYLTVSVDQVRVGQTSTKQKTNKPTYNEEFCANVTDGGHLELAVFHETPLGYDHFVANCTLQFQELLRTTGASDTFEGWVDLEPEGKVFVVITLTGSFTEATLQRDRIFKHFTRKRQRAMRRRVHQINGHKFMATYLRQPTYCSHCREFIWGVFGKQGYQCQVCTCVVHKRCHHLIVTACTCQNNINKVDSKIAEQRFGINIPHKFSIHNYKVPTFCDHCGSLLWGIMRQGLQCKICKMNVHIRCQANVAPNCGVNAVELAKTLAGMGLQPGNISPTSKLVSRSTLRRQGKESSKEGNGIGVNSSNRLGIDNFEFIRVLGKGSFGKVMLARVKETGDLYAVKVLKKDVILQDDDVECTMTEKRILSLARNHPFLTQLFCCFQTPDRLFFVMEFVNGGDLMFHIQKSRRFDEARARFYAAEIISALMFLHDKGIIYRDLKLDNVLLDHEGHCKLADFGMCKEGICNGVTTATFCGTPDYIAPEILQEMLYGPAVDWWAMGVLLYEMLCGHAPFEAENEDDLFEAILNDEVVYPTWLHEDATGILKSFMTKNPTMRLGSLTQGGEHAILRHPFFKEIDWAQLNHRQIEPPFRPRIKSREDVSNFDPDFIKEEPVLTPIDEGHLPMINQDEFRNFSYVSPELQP
T4 sequence (P45983 whole entry): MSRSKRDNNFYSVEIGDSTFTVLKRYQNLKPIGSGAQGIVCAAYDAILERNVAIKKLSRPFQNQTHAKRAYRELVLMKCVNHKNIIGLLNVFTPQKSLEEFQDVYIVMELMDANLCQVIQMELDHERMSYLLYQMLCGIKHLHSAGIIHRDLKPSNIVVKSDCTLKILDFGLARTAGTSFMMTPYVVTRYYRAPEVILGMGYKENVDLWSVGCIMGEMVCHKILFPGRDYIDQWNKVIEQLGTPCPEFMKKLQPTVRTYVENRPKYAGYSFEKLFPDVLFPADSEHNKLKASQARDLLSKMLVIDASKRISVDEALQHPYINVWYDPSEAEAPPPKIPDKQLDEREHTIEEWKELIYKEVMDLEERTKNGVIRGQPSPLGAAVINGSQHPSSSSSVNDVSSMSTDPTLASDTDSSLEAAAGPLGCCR
T5 sequence (P04626 23-1255): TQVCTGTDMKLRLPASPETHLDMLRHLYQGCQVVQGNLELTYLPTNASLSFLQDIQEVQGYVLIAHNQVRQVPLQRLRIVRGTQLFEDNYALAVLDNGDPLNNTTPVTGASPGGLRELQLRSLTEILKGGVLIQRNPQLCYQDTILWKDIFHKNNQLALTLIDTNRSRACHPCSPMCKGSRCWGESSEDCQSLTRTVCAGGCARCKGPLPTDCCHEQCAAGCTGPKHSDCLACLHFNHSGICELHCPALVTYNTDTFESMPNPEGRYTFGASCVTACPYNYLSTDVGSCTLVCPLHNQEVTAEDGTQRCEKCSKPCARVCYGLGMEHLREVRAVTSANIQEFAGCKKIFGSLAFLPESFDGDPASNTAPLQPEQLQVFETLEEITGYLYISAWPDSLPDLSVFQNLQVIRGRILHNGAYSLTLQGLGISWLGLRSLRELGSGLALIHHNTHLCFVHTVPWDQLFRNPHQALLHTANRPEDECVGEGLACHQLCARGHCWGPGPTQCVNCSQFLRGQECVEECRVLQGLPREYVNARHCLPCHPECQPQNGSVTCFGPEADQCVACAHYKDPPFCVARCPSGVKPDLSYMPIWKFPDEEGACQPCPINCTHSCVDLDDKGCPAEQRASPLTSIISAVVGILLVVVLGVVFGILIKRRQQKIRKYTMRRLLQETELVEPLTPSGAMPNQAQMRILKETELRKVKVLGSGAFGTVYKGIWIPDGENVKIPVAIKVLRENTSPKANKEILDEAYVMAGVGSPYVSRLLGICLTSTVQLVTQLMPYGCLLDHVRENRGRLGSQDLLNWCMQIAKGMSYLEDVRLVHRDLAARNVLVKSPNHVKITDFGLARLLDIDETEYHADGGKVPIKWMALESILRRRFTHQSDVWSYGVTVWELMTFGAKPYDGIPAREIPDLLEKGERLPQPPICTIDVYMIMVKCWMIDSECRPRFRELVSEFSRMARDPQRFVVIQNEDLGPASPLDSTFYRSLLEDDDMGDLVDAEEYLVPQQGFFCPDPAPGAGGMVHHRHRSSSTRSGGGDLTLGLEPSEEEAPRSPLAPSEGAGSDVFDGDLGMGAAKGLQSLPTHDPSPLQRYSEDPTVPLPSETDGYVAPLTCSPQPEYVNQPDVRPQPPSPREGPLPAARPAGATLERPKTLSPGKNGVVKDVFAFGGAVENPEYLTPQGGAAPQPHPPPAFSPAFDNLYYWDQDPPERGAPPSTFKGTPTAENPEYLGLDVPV

Structure (SMILES) | remaining activity at 5 µM [1] | remaining activity at 5 µM [2] | remaining activity at 5 µM [3] | remaining activity at 5 µM [4] | remaining activity at 5 µM [5] | remaining activity at 5 µM [6] | remaining activity at 5 µM [7] | remaining activity at 5 µM [8] | remaining activity at 5 µM [9] | remaining activity at 5 µM [10] | remaining activity at 5 µM [11, 12] | remaining activity at 5 µM [11, 13] | remaining activity at 5 µM [11, 14] | remaining activity at 5 µM [11, 15] | remaining activity at 5 µM [11, 16] | other results
O=C(Nc1cnn(-c2csc(C(=O)NC3COC3)c2)c1)Nc1ccccc1Cl [Compound 17, 4-(4-(3-(2-chlorophenyl)ureido)-1H-pyrazol-1-yl)-N-(oxetan-3-yl)thiophene-2-carboxamide] | 87% | 103% | 105% | 57.6% | 103% | 97.9% | 107% | 94.8% | 145% | 105% | 106% | 93.6% | 107% | 99% | 93.2% | 
O=C(Nc1cnn(-c2csc(C(=O)NC3COC3)c2)c1)Nc1c(F)cccc1Cl [Compound 25, 4-(4-(3-(2-chloro-6-fluorophenyl)ureido)-1H-pyrazol-1-yl)-N-(oxetan-3-yl)thiophene-2-carboxamide] | 82.8% | 99% | 53.4% | 49.1% | 97% | 102% | 92.2% | 101% | 89.5% | 83.1% | 94.2% | 93.8% | 98.9% | 94.6% | 94.1% | 
Cc1sc(C(=O)NC2COC2)cc1-n1cc(NC(=O)Nc2c(F)cccc2Cl)cn1 [Compound 27, 4-(4-(3-(2-chloro-6-fluorophenyl)ureido)-1H-pyrazol-1-yl)-5-methyl-N-(oxetan-3-yl)thiophene-2-carboxamide] |  |  |  |  |  |  |  |  |  |  |  |  |  |  |  | remaining activity at 10 µM ([1]; 10 uM): 105%; remaining activity at 10 µM ([2]; 10 uM): 91.6%; remaining activity at 10 µM ([3]; 10 uM): 105%; remaining activity at 10 µM ([4]; 10 uM): 76.3%; remaining activity at 10 µM ([5]; 10 uM): 64.1%; remaining activity at 10 µM ([6]; 10 uM): 91.5%; remaining activity at 10 µM ([7]; 10 uM): 116%; remaining activity at 10 µM ([8]; 10 uM): 102%; remaining activity at 10 µM ([9]; 10 uM): 70%; remaining activity at 10 µM ([10]; 10 uM): 88.4%; remaining activity at 10 µM [11, 12]: 111%; remaining activity at 10 µM [11, 13]: 98.3%; remaining activity at 10 µM [11, 14]: 90.8%; remaining activity at 10 µM [11, 15]: 106%; remaining activity at 10 µM [11, 16]: 105%

— patent US20240246942A1, “KINASE INHIBITORS FOR THE TREATMENT OF NEURODEGENERATIVE DISEASES” (priority 2020, published 2024)
